# US9062008B2, “Compounds useful as inhibitors of ATR kinase” (Vertex Pharmaceuticals Incorporated, priority 2010, dated 2015)
# Target: T1, full-length ATR (Homo sapiens, UniProt Q13535)
# T1 construct: Assays were carried out at 25° C. in the presence of 5 nM full-length ATR
# Assay: ATR Inhibition Assay (radioactive-phosphate incorporation)
# Type: biochemical
# Conditions: for % inhibition of ATR / inhibition at 8 µM: at 8 uM
# Method: Compounds were screened for their ability to inhibit ATR kinase using a radioactive-phosphate incorporation assay. Assays were carried out in a mixture of 50 mM Tris/HCl (pH 7.5), 10 mM MgCl2 and 1 mM DTT. Final substrate concentrations were 10 μM [γ-33P]ATP (3mCi 33P ATP/mmol ATP, Perkin Elmer) and 800 μM target peptide ([…] (SEQ. ID NO: 1)).
# Assays were carried out at 25° C. in the presence of 5 nM full-length ATR. An assay stock buffer solution was prepared containing all of the reagents listed above, with the exception of ATP and the test compound of interest. 13.5 μL of the stock solution was placed in a 96 well plate followed by addition of 2 μL of DMSO stock containing serial dilutions of the test compound (typically starting from a final concentration of 15 μM with 3-fold serial dilutions) in duplicate (final DMSO concentration 7%). The plate was pre-incubated for 10 minutes at 25° C. and the reaction initiated by addition of 15 μl. [γ-33P]ATP (final concentration 10 μM).
# The reaction was stopped after […] by the addition of 30 μL 0.1 M phosphoric acid containing 2 mM ATP. A multiscreen phosphocellulose filter 96-well plate (Millipore, Cat no. MAPHN0B50) was pretreated with 100 μL 0.2M phosphoric acid prior to the addition of 45 μL of the stopped assay mixture. The plate was washed with 5×200 μL 0.2 M phosphoric acid. After drying, 100 μL Optiphase ‘SuperMix’ liquid scintillation cocktail (Perkin Elmer) was added to the well prior to scintillation counting (1450 Microbeta Liquid Scintillation Counter, Wallac).
# After removing mean background values for all of the data points, Ki(app) data were calculated from non-linear regression analysis of the initial rate data using the Prism software package (GraphPad Prism version 3.0cx for Macintosh, GraphPad Software, San Diego Calif., USA).
# T1 sequence (Q13535 whole entry): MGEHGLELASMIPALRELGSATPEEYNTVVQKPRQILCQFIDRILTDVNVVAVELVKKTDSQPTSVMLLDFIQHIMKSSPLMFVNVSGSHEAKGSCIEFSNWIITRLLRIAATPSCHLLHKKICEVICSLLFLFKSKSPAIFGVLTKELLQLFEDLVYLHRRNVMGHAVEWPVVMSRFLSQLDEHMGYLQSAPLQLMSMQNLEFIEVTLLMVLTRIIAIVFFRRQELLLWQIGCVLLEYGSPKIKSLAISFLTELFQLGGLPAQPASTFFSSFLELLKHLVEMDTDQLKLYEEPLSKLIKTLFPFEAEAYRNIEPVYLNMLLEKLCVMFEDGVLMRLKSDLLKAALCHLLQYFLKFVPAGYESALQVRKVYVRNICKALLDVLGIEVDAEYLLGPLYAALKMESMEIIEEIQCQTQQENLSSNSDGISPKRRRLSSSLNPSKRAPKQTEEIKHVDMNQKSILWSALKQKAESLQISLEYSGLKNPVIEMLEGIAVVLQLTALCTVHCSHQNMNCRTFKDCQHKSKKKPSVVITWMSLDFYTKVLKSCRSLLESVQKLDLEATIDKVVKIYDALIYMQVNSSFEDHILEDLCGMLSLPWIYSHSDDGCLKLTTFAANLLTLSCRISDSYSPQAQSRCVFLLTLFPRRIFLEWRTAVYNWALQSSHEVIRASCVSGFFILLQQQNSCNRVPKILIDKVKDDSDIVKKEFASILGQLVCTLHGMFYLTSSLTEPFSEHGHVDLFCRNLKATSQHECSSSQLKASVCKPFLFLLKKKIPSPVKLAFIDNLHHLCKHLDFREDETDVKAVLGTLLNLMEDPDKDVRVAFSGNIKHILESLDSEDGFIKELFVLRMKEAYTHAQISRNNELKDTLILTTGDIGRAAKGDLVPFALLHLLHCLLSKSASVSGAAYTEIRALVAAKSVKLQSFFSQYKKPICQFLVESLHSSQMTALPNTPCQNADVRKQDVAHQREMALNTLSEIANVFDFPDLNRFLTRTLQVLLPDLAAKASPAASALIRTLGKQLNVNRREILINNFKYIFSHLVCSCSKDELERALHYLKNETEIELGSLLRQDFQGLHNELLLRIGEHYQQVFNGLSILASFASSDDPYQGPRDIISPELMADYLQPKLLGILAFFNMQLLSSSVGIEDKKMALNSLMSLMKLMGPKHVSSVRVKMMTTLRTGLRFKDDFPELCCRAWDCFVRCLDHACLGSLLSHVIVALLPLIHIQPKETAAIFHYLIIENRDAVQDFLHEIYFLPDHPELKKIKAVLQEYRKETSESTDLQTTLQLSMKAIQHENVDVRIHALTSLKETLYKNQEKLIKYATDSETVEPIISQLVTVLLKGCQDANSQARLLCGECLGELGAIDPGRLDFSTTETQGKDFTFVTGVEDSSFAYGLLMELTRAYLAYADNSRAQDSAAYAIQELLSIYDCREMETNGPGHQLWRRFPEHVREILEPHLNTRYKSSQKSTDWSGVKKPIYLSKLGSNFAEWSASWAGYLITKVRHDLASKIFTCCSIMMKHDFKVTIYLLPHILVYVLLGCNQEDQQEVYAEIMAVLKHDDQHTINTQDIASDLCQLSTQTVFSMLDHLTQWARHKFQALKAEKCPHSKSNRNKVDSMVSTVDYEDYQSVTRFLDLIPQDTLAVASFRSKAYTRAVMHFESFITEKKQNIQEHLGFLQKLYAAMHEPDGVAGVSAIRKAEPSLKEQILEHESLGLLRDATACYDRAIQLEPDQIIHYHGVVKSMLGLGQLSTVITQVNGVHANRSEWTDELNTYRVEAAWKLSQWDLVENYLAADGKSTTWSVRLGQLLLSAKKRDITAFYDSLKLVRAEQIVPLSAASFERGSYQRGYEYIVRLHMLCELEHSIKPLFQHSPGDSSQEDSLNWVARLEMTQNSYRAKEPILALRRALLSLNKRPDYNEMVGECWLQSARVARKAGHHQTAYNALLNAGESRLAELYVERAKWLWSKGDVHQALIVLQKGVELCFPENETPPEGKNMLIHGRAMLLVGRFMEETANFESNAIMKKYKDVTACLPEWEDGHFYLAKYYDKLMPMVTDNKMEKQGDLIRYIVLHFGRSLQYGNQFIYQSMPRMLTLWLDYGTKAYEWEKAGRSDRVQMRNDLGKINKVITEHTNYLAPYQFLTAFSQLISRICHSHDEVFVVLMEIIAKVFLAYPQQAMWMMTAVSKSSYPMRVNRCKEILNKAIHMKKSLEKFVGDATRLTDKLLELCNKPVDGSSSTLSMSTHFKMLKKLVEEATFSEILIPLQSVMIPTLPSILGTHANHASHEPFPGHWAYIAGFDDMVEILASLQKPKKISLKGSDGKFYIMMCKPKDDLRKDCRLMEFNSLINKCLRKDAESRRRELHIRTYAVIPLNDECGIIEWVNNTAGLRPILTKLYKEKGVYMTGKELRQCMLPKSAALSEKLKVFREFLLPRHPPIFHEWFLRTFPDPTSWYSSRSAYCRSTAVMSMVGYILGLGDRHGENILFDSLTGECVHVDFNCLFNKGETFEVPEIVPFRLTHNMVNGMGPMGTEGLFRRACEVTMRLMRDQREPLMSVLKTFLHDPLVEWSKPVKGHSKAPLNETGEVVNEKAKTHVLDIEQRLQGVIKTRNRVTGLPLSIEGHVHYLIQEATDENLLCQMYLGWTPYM
Structure (SMILES),% inhibition of ATR,Ki,inhibition at 8 µM
"CC(C)S(=O)(=O)c1ccc(-c2cnc(N)c(N3CCC(N)C3)n2)cc1 (centres unmarked) [Compound V-2, 3-(3-Aminopyrrolidin-1-yl)-5-(4-isopropylsulfonylphenyl)pyrazin-2-amine]",–,> 1000 nM,10%
CC(C)S(=O)(=O)c1ccc(-c2cnc(N)c(NCC3=CC(O)CC=C3)n2)cc1 (centres unmarked) [Compound V-4],–,100 to 1000 nM,–
"CC(C)S(=O)(=O)c1ccc(-c2cnc(N)c(NCCc3ccccc3)n2)cc1 [Compound V-5, 5-(4-Isopropylsulfonylphenyl)-N3-phenethyl-pyrazine-2,3-diamine]",–,–,20%
"CC(C)S(=O)(=O)c1ccc(-c2cnc(N)c(NC[C@H](O)c3ccccc3)n2)cc1 [Compound V-6, (1R)-2-[[3-amino-6-(4-isopropylsulfonylphenyl)pyrazin-2-yl]amino-]-1-phenyl-ethanol]",–,> 1000 nM,10%
"CC(C)S(=O)(=O)c1ccc(-c2cnc(N)c(NC[C@@H](O)c3ccccc3)n2)cc1 [Compound V-7, (1S)-2-[[3-Amino-6-(4-isopropylsulfonylphenyl)pyrazin-2-yl]amino]-1-phenyl-ethanol]",–,> 1000 nM,30%
CS(=O)(=O)c1ccc(-c2cnc(N)c(OCc3ccccc3)n2)cc1 [Compound V-9],–,≤ 100 nM,–
CS(=O)(=O)c1ccc(-c2cnc(N)c(/C=C/c3ccccc3)n2)cc1 [Compound V-10],–,≤ 100 nM,–
"CS(=O)(=O)c1ccc(-c2cnc(N)c(NS(=O)(=O)c3ccccc3)n2)cc1 [Compound V-14, N-(3-amino-6-(4-(methylsulfonyl)phenyl)pyrazin-2-yl)benzenesulfonamide]",no detectable inhibition,> 1000 nM,–
"CC(C)n1cc(-c2cnc(N)c(OCc3ccccc3)n2)ccc1=O [Compound V-15, 5-(5-amino-6-(benzyloxy)pyrazin-2-yl)-1-isopropylpyridin-2(1H)-one]",–,100 to 1000 nM,–

# The next lines start with the values.
% inhibition of ATR,Ki,inhibition at 8 µM,Structure (SMILES)
no detectable inhibition,–,–,"CC(C)S(=O)(=O)c1ccc(-c2cnc(N)c(N3CCN(c4ccccc4)CC3)n2)cc1 [Compound V-1, 5-(4-Isopropylsulfonylphenyl)-3-(4-phenylpiperazin-1-yl)pyrazin-2-amine]"
–,> 1000 nM,10%,CC(C)S(=O)(=O)c1ccc(-c2cnc(N)c(NCc3ccccc3)n2)cc1 [Compound V-3]
–,≤ 100 nM,–,"CC(C)S(=O)(=O)c1ccc(-c2cnc(N)c(CCc3ccccc3)n2)cc1 [Compound V-11, 5-(4-Isopropylsulfonylphenyl)-3-phenethyl-pyrazin-2-amine]"
–,≤ 100 nM,–,"CC(C)S(=O)(=O)c1ccc(-c2cnc(N)c(C(=O)c3ccccc3)n2)cc1 [Compound V-12, [3-Amino-6-(4-isopropylsulfonylphenyl)pyrazin-2-yl]-phenyl-methanone]"
–,> 1000 nM,–,"CC(C)S(=O)(=O)c1ccc(-c2cnc(N)c(NCCc3ccccc3)n2)cc1 [Compound V-13, 6-(4-(isopropylsulfonyl)phenyl)-N2-phenethylpyrazine-2,3-diamine]"
–,≤ 100 nM,–,"CC(C)S(=O)(=O)c1ccc(-c2cnc(N)c(/C(F)=C/c3ccccc3)n2)cc1 [Compound V-16, (Z)-3-(1-fluoro-2-phenylvinyl)-5-(4-(isopropylsulfonyl)phenyl)pyrazin-2-amine]"
